Experimental data as given in patent US6969590B2, “Use of a polypeptide for treatment of pruritus in animals” (Zengen, Inc., priority 2001, dated 2005).

How the values were obtained:
[1] = system: carrageenan-induced swelling in rat paws; assay: Rat paw edema test; type: in vivo, Sprague-Dawley rats
Description: A second in vivo bioassay for anti-inflammatory activity was conducted in which the action of the tripeptide was compared to that of hydrocortisone. In this assay, the two agents were given at similar doses and tested for their independent ability to inhibit carrageenan-induced swelling in rat paws. This assay, the rat paw edema test, was conducted generally as it is typically performed in the art, for example, as described by Winter et al. (1962), Proc. Soc. Exp. Biol. Med., 111:544 or in U.S. Pat. No. 4,150,137. Briefly, the assay was performed as follows. Each of twenty-four male Sprague-Dawley rats was assigned to one of four groups: Tripeptide treatment and controls (matched according to body weight and initial paw volume), hydrocortisone treatment and matched controls. The volume of the right rear paw of the test and control animals was determined using standard procedures and a mercury displacement volumetric technique. […] One hour later 0.5 ml of 1% lambda carrageenan in saline solution was injected into the right rear paw of the animals and the paw volume was again recorded (baseline measure). For comparison of the effects of the two treatments, paw volume of experimental animals measured at hourly intervals was expressed as a percentage of the volume change of their respective matched controls.

TNF-α = TNF-α production by activated N9 microglia; type: cell-based, murine; conditions: microglia stimulated with LPS+IFN-γ for 24 hr, micromolar concentrations
Description: (§1) The N9 clone of murine microglial cells was obtained by immortalization of embryonic brain cultures with the 3RV retrovirus carrying an activated v-myconcogene. N9 cells were cultured in T-75-cm^2 culture flasks (Corning, Cambridge, Mass.) and maintained at 37° C. in a humidified incubator under 5% CO2 atmosphere in RPMI 1640 supplemented with 2 mM L-glutamine, 50 U/mL penicillin G, 50 μg/mL streptomycin sulfate (GIBCO-BBL, Paisley, UK), and 10% heat-inactivated fetal bovine serum (FBS, Hyclone Lab, Inc., Logan, Utah) until experiments were performed. Cells were used between the first and the tenth passage.
(§2) Sub-confluent microglial cells were washed twice with phosphate-buffered saline (PBS) and incubated with trypsin 0.025% and ethylenediaminetetraacetate (EDTA) 0.02% without calcium and magnesium for 3 min. at 37° C. to detach the cells from the culture flask. Cells were then resuspended in medium and incubated in 24-well tissue-culture plates at a concentration of 2×10^5 cells/mL for 16 h in a humidified incubator (37° C., 5% CO2). Growth medium was removed and cell monolayers were stimulated with 10 ng/mL lipopolysaccharide (LPS, from Escherichia coli 055:B5, Sigma Chemical Co., St. Louis, Mo.) plus 1 U/ml, murine IFN-γ (Sigma). To test effects of melanocortin peptides, concentrations (1, 10, 25, 50 and 100 μM) of α-MSH (1-13), α-MSH (11-13), and ACTH (1-24) (Sigma) were dissolved in medium and added to wells 10 min before treatment with LPS+IFN-γ. […] Viability of cells was assessed by trypan blue exclusion for each experimental condition; it was consistently >98%. […]
(§3) TNF-α bioactivity was measured in supernatants of cell cultures by standard cytotoxicity assay using L929 cells and recombinant human TNF-α (Sigma) as standard. […] IL-6 was measured using a commercial murine enzyme-linked immunosorbent assay (ELISA: RPN 2714, Amersham, Little Chalfont, UK).
(§4) Effects of melanocortin peptides on cytokine and NO production were evaluated by repeated measures analysis of variance followed by Dunnet's test for specific comparisons. […]

NO2^− = assay: Nitrite (NO) production by activated N9 microglia; type: cell-based, murine; conditions: microglia stimulated with LPS+IFN-γ for 24 hr, micromolar concentrations
Description: as §1, §2
NO is rapidly oxidized to nitrite (NO2) in culture medium, and nitrite concentration is an indicator of NO production. […] Samples were incubated at room temperature for 10 min and absorbency was measured at 540 nm with the use of a microplate reader. Nitrite concentrations were calculated using a sodium nitrite standard curve.
as §4

TNF-α and iNOS mRNA = assay: Northern blot of TNF-α and iNOS mRNA in activated microglia; type: cell-based, murine
Description: Total cellular RNA was extracted from 10^6 adherent microglial cells plated in six-well tissue culture plates (Corning). Electrophoresis of RNA samples (10 μg/lane) was performed in 1% agarose/2.2 M formaldehyde gels and the gels subsequently blotted onto nylon filters by capillary action and baked for 2 h before prehybridization. The cDNA fragments encoding murine TNF-α and mouse macrophage iNOS were ^32P-labeled using the Ready-To-Go DNA Labeling Kit (Pharmacia, Uppsala, Sweden) before hybridization of nylon filters and autoradiography. Blots were subsequently rehybridized with human glyceraldehyde-3-phosphate dehydrogenase (G-3-PDH) cDNA probe as an internal control (Clontech Laboratories, Inc., Palo Alto, Calif.).

IL-6 = IL-6 production by activated N9 microglia; type: cell-based, murine; conditions: microglia stimulated with LPS+IFN-γ for 24 hr, micromolar concentrations
Description: as §1, §2, §3, §4

[2] = system: histamine-induced blue weal formation; assay: Sparrow/Wilhelm assay: histamine-induced blue wheals; type: in vivo, New Zealand white rabbits; conditions: for relative intensity of blue wheals, experimental vs control: scored 30 minutes after histamine
Source text: This model relies on the principal that localized, subcutaneous injections of histamine will result in a localized increase in capillary permeability. When the test animal has been pretreated with blue dye intravenously, the localized histamine injections will elicit blue-colored wheals around the injection site. Thus, by pre-administration of an effective anti-inflammatory agent the blue color of the histamine-induced wheals will be much less pronounced, with the amount of color reduction being dependent on the relative amount and/or potency of the anti-inflammatory agent used.
Non-molting New Zealand white rabbits were used for the Sparrow/Wilhelm assay. The skin of the rabbits back was closely clipped 1-2 days previous to the experiment, but not depilated, and the rabbits were kept warm until tested. Various amounts of the protected tripeptide Ac-Lys-Pro-Val-NH2 were injected intravenously into an ear vein approximately 15 minutes prior to intravenous injection of blue dye. Control rabbits received sham injections. Fifteen minutes following injection of the agent or sham, the rabbits received approximately 30 mg/kg of Pontamine blue dye as a 2.5% solution in 0.45% saline, into an exposed vein. Immediately following dye injections, histamine was injected intradermally in a 0.10 ml volume (1.25 mg histamine 0.1 ml volume) at several sites on each side of the spine. In all, one vertical row of six injections were made on each side of the spine. The relative intensity of the resultant blue wheals were scored by an independent observer 30 minutes after histamine injection.

[3] = system: inflammation induced in the hind paw; assay: Kappa carrageenan-induced hind paw inflammation, spinal cord intact or transected; type: in vivo, BALB/c mice; conditions: given intraperitoneally, spinal cord transection
Description: Because surgical dissection of trigeminal structures that innervate the ear of the mouse is very difficult, tests to learn whether descending neural pathways are essential to the anti-inflammatory activity of centrally administered α-MSH peptides were performed in mice with inflammation induced in a hind paw. In these experiments, each animal was anesthetized with pentobarbital sodium solution as above. Baseline footpad thickness of both hind paws was measured with a spring-loaded micrometer (Swiss Precision Instruments, Los Angeles, Calif.). Paw thickness was expressed in units of 10^−3 cm; average thickness of unstimulated paws was 171.5×10^−3 cm across shipments of animals. Kappa carrageenan (Sigma) dissolved in saline (0.05%, 20 μl) was injected (28 gauge allergy test syringe) into one footpad, and saline (20 μl) was injected into the other. For the analyses, the increase in thickness of the control saline-injected paw of each animal was subtracted from that of the carrageenan-injected paw, to eliminate the influence of mechanical injury and volume of the injected fluid. To be certain that mice with severed spinal cords can react to anti-inflammatory agents, prednisolone (2.5 mg/mouse (IP injection)) was administered to 10 mice with spinal transection and inflammation induced by carrageenan. Treatment with the locally acting steroid reduced swelling up to 29% (average, relative to saline controls) at 4.5 h. after carrageenan.
However, a standardized crushing of lumbar vertebrae with a hemostat was effective in severing the cord; no deaths were caused by this treatment. […] The experiments were limited to 4.5 h to reduce problems of bowel and bladder dysfunction. Immediately after the 4.5 h measurements all mice were killed with an overdose of sodium pentobarbital.
Because of the size of the experiments and the requirement for several shipments of animals over time, several experiments were performed, each with complete treatment and control groups drawn from the same shipment of mice. Omnibus analysis of variance techniques (Dynastat, Washington, D.C.) were used to test overall differences among group means. Tukey's protected t test was used to compare individual means. Probability values of <0.05 were considered significant.

[4] = system: inflammation induced in the ear by picryl chloride; assay: Picryl chloride-induced ear swelling; type: in vivo, BALB/C mice
Description: Female BALB/C mice (Simmons Laboratories), 7 weeks old, were housed at 23-25° C. in groups of no more than 5 per cage [28 cm (L)×18 cm (W)×13 cm (H)]. They were allowed to acclimatize to standard lighting and temperature conditions for at least 1 week, with food and water available ad lib, before the experiment began. Five to ten animals were randomly assigned to each treatment group each test day, and all experiments were repeated at least twice to confirm reproducibility. To reduce error due to slight differences in responses to the irritant of animals from different shipments, tests of each agent were performed as separate experiments in which experimental and control animals were drawn from the same shipment.
In the experiments each animal was anesthetized with 1 mg of pentobarbital sodium solution (50 mg/kg, Nembutal, Abbott Laboratories, Abbott park, Ill.). Baseline ear thickness was measured for both ears with a spring-loaded micrometer (Swiss Precision Instruments, Los Angeles, Calif.). Ear thickness was expressed in units of 10^−3 cm; the average thickness of unstimulated ears was approximately 25-30×10^−3 cm. After baseline measurements were taken, one of six solutions was injected IP. Control animals received 0.2 ml of sterile saline, and experimental animals received Ac-α-MSH (11-13)-NH2, i.e., Ac-Lys-Pro-Val-NH2), Ac[D-Lys^11] α-MSH (11-13)-NH2, Ac[D-Pro^12] α-MSH (11-13)-NH2, Ac[D-Val^13] α-MSH (11-13)-NH2 or Ac-[D-Lys^11, D-Val^13] α-MSH (11-13)-NH2 in the same volume of saline. […] The doses of the tripeptides were 10 μg ([…]), 20 μg ([…]), 40 μg (1.04×10^−7 M), and 80 μg (2.08×10^−7 M). Immediately after saline or α-MSH injection, a micropipette was used to coat both sides of each ear with 10 μl (40 μl per mouse) of a 0.5% picryl chloride (Polysciences, Warrington, Pa.) solution in acetone.
Ear thickness was remeasured 3 and 6 h after picryl chloride application. Swelling was determined by subtracting baseline thickness from the measurements for each ear at 3 and 6 h. The differences for both ears were then averaged for the final analysis.
Repeated-measure ANOVA techniques were used to determine if there was an overall difference among group data for each peptide tested in separate experiments. In those cases in which the ANOVA yielded significant results, Dunnett's test was then used to compare the effects of peptide doses with control (saline) data for each of the two time periods, 3 and 6 h.

For `C[C@]12CCC(=O)C=C1CC[C@@H]1[C@@H]2[C@@H](O)C[C@@]2(C)[C@H]1CC[C@]2(O)C(=O)CO` [hydrocortisone, reference compound], the “inhibition of paw swelling in the first hour” value ([1]; 100 mg/kg intraperitoneal, first hour) was “markedly inhibited swelling”.
With “ACTH (1-24): melanocortin peptide ACTH (1-24) (SYSMEHFRWGKPVGKKRRPVKVYP; Corticotropin; UniProt P01189 138-161, looked up, fragment) [reference compound]” the “reduction of production of TNF-α” value (TNF-α) was 38%, the “reduction of production of NO2^−” value (NO2^−) was 41% and the “mRNA for TNF-α and iNOS (Northern blot)” value (TNF-α and iNOS mRNA) was “inhibition of mRNA transaction for TNF-α and iNOS”. For the same molecule, the “reduction of production of IL-6” value (IL-6) was 65%.
In the case of “Ac-Lys-Pro-Val-NH2 [Ac-α-MSH(11-13)-NH2, protected tripeptide]”, the “relative intensity of blue wheals, experimental vs control” value (“relative intensity of blue wheals” below) ([2]; 0.625 ug/kg intravenously) is reported as “No difference”, the “relative intensity of blue wheals” value ([2]; 1.25 ug/kg intravenously) is reported as “E lighter than C” and the “relative intensity of blue wheals” value ([2]; 5 ug/kg intravenously) is reported as “E lighter than C”. For the same molecule, the “relative intensity of blue wheals” value ([2]; 10 ug/kg intravenously) was “E lighter than C”, the “lowest intravenous dose with appreciable reduction in blue weal formation” value ([2]; intravenous) was 1.25 ug tripeptide per kg body weight and the “inhibition of paw edema compared with hydrocortisone” value ([1]; 100 mg/kg intraperitoneal each, hourly, after the first hour) was “no significant difference in the inhibition of paw edema”. For the same molecule, the “anti-inflammatory effect after spinal cord transection” value [3] was “marked inhibitory effect on inflammation”, the “% Inhibition of swelling” value ([4]; 10 μg IP, 3 h) was 26% and the “% Inhibition of swelling” value ([4]; 10 μg IP, 6 h) was 25%. For the same molecule, the “% Inhibition of swelling” value ([4]; 20 μg IP, 3 h) was 21%, the “% Inhibition of swelling” value ([4]; 20 μg IP, 6 h) was 19% and the “% Inhibition of swelling” value ([4]; 40 μg IP, 3 h) was 33%. The “% Inhibition of swelling” value ([4]; 40 μg IP, 6 h) was 26%, the “% Inhibition of swelling” value ([4]; 80 μg IP, 3 h) was 50% and the “% Inhibition of swelling” value ([4]; 80 μg IP, 6 h) was 42%. For the same molecule, the “overall effect on ear inflammation (ANOVA)” value ([4]; 10-80 μg IP, 3 and 6 h) was “inhibited acute inflammation”.
